Laboratory results: patent US11932658B2 (BRISTOL-MYERS SQUIBB COMPANY, priority 2016, dated 2024)

Molecular target: T1, PAR4 (Homo sapiens, UniProt Q96RI0)
T1 construct: expressed in transfected cells; host or cells: HEK293 PAR4 Clone 1.2A (BMS Arctic ID 383940)
T1 sequence (Q96RI0 18-385): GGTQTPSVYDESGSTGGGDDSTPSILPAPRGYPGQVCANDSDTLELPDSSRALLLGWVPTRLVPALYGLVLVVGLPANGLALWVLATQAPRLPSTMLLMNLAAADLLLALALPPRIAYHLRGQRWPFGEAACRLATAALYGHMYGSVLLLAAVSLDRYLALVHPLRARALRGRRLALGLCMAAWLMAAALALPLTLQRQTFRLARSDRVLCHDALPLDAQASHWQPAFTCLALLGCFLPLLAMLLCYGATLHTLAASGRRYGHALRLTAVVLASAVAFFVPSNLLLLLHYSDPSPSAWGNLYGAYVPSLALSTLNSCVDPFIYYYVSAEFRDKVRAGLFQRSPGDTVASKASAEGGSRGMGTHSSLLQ
Assay: PAR4 FLIPR assay (antagonism of agonist peptide-induced calcium mobilization)
Format: cell-based
Outline: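 Antagonism was taken as block of calcium mobilization evoked by the agonist peptide H-Ala-Phe(4-F)-Pro-Gly-Trp-Leu-Val-Lys-Asn-[…]-NH2, added after 30 min room-temperature compound preincubation in dye-loaded PAR4-transfected HEK293 cells (endogenous PAR1). Fluorescence was read on FDSS, with compound addition alone used as the agonist counter-screen; values come from 11-point concentration-response curves.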

For `COc1cnc2c(-c3nc4cc(F)c5c(c4s3)C[C@H](COC(=O)Nc3cnc(C)nc3)O5)cc(C)cc2n1` [Example 145, (R)-(5-fluoro-2-(2-methoxy-7-methylquinoxalin-5-yl)-7,8-dihydrobenzofuro[5,4-d]thiazo 1-7-yl)methyl (2-methylpyrimidin-5-yl)carbamate], which IC50 is on record?
Its IC50 is 1.8 nM.

For `COc1cnc2c(-c3nc4cc(F)c5c(c4s3)C[C@@H](CO)O5)cc(C)cc2n1` [Example 146, (S)-(5-fluoro-2-(2-methoxy-7-methylquinoxalin-5-yl)-7,8-dihydrobenzofuro[5,4-d]thiazol-7-yl)methanol], which IC50 is on record?
Its IC50 is 1.1 nM.

For `COc1cnc2c(-c3nc4c(Cl)cc5c(c4s3)CC(COC(=O)Nc3ccc(C)nc3)O5)cc(CO)cc2n1` (stereo not drawn) [Example 148, (4-chloro-2-(7-(hydroxymethyl)-2-methoxyquinoxalin-5-yl)-7,8-dihydrobenzofuro[5,4-d]thiazol-7-yl)methyl (6-methylpyridin-3-yl)carbamate], which IC50 is on record?
Its IC50 is 0.7 nM.

For `COc1cnc2c(-c3nc4ccc5c(c4s3)C[C@@H](CO)O5)cc(C)cc2n1` [Example 149, (S)-(2-(2-methoxy-7-methylquinoxalin-5-yl)-7,8-dihydrobenzofuro[5,4-d]thiazol-7-yl)me thanol], which IC50 is on record?
The IC50 was 1.5 nM.

Which IC50 does the source give for `COc1cnc2c(-c3nc4ccc5c(c4s3)C[C@@H](COC(=O)Nc3cnc(C)nc3)O5)cc(C)cc2n1` [Example 150, (S)-(2-(2-methoxy-7-methylquinoxalin-5-yl)-7,8-dihydrobenzofuro[5,4-d]thiazol-7-yl)me thyl (2-methylpyrimidin-5-yl)carbamate] here?
Its IC50 is 5.4 nM.

With `COc1cnc2c(-c3nc4cc(F)c5c(c4s3)C[C@@H](COC(=O)Nc3cnc(C)nc3)O5)cc(C)cc2n1` [Example 151, (S)-(5-fluoro-2-(2-methoxy-7-methylquinoxalin-5-yl)-7,8-dihydrobenzofuro[5,4-d]thiazol-7-yl)methyl (2-methylpyrimidin-5-yl)carbamate] as the compound, how does the IC50 read?
Its IC50 is 3.9 nM.

`CCOc1cnc2c(-c3nc4cc(F)c5c(c4s3)C[C@@H](CO)O5)cc(C)cc2n1` [Example 152, (S)-(2-(2-ethoxy-7-methylquinoxalin-5-yl)-5-fluoro-7,8-dihydrobenzofuro[5,4-d]thiazol-7-yl)methanol] was tested. Which IC50 did it give?
The IC50 was 11 nM.

For `CCOc1cnc2c(-c3nc4cc(F)c5c(c4s3)C[C@H](COC(=O)Nc3cnc(C)nc3)O5)cc(C)cc2n1` [Example 153, (R)-(2-(2-ethoxy-7-methylquinoxalin-5-yl)-5-fluoro-7,8-dihydrobenzofuro[5,4-d]thiazol-7-yl)methyl (2-methylpyrimidin-5-yl)carbamate], which IC50 is on record?
Its IC50 is 2.4 nM.

How did the IC50 turn out when `COc1cnc2c(-c3nc4cc(F)c5c(c4s3)C[C@H](COC(=O)Nc3cncc(C#N)c3)O5)cc(C)cc2n1` [Example 154, (R)-(5-fluoro-2-(2-methoxy-7-methylquinoxalin-5-yl)-7,8-dihydrobenzofuro[5,4-d]thiazol-7-yl)methyl (5-cyanopyridin-3-yl)carbamate] was run?
Its IC50 is 6.3 nM.

With `COc1cnc2c(-c3nc4cc(F)c5c(c4s3)C[C@H](COC(=O)Nc3cnc(CCO)nc3)O5)cc(C)cc2n1` [Example 155, (R)-(5-fluoro-2-(2-methoxy-7-methylquinoxalin-5-yl)-7,8-dihydrobenzofuro[5,4-d]thiazo 1-7-yl)methyl (2-(2-hydroxyethyl)pyrimidin-5-yl)carbamate] as the compound, how does the IC50 read?
The IC50 was 13 nM.

`COC(=O)[C@@H]1Cc2c(ccc3nc(-c4cc(C)cc5nc(OC)cnc45)sc23)O1` [Example 156, (S)-methyl 2-(2-methoxy-7-methylquinoxalin-5-yl)-7,8-dihydrobenzofuro[5,4-d]thiazole-7-carboxylate] was tested. Which IC50 did it give?
The IC50 was 28 nM.

`COc1cnc2c(-c3nc4cc(F)c5c(c4s3)C[C@H](COC(=O)Nc3cccnc3)O5)cc(C)cc2n1` [Example 157, (R)-(5-fluoro-2-(2-methoxy-7-methylquinoxalin-5-yl)-7,8-dihydrobenzofuro[5,4-d]thiazo 1-7-yl)methyl pyridin-3-ylcarbamate] was tested. Which IC50 did it give?
Its IC50 is 0.8 nM.

Which IC50 does the source give for `COc1cnc2c(-c3nc4cc(F)c5c(c4s3)C[C@H](COC(=O)Nc3ccc(C)nc3)O5)cc(C)cc2n1` [Example 159, (R)-(5-fluoro-2-(2-methoxy-7-methylquinoxalin-5-yl)-7,8-dihydrobenzofuro[5,4-d]thiazol-7-yl)methyl (6-methylpyridin-3-yl)carbamate] here?
Its IC50 is 0.6 nM.

For `COc1cnc2c(-c3nc4cc(F)c5c(c4s3)C[C@H](COC(=O)Nc3ccnc(C)c3)O5)cc(C)cc2n1` [Example 160, (R)-(5-fluoro-2-(2-methoxy-7-methylquinoxalin-5-yl)-7,8-dihydrobenzofuro[5,4-d]thiazol-7-yl)methyl (2-methylpyridin-4-yl)carbamate], which IC50 is on record?
The IC50 was 0.6 nM.

With `COc1cnc2c(-c3nc4cc(F)c5c(c4s3)C[C@H](COC(=O)Nc3cncc(F)c3)O5)cc(C)cc2n1` [Example 161, (R)-(5-fluoro-2-(2-methoxy-7-methylquinoxalin-5-yl)-7,8-dihydrobenzofuro[5,4-d]thiazo 1-7-yl)methyl (5-fluoropyridin-3-yl)carbamate] as the compound, how does the IC50 read?
Its IC50 is 1.1 nM.

`COc1cnc2c(-c3nc4cc(F)c5c(c4s3)C[C@H](COC(=O)Nc3cccc(C#N)c3)O5)cc(C)cc2n1` [Example 162, (R)-(5-fluoro-2-(2-methoxy-7-methylquinoxalin-5-yl)-7,8-dihydrobenzofuro[5,4-d]thiazol-7-yl)methyl (3-cyanophenyl)carbamate] was tested. Which IC50 did it give?
The IC50 was 0.7 nM.

With `COc1cc(NC(=O)OC[C@H]2Cc3c(c(F)cc4nc(-c5cc(C)cc6nc(OC)cnc56)sc34)O2)ccn1` [Example 163, (R)-(5-fluoro-2-(2-methoxy-7-methylquinoxalin-5-yl)-7,8-dihydrobenzofuro[5,4-d]thiazo 1-7-yl)methyl (2-methoxypyridin-4-yl)carbamate] as the compound, how does the IC50 read?
Its IC50 is 160 nM.

How did the IC50 turn out when `COc1ccc(NC(=O)OC[C@H]2Cc3c(c(F)cc4nc(-c5cc(C)cc6nc(OC)cnc56)sc34)O2)cn1` [Example 164, (R)-(5-fluoro-2-(2-methoxy-7-methylquinoxalin-5-yl)-7,8-dihydrobenzofuro[5,4-d]thiazo 1-7-yl)methyl (6-methoxypyridin-3-yl)carbamate] was run?
The IC50 was 1.6 nM.

`COc1cnc2c(-c3nc4cc(F)c5c(c4s3)C[C@H](COC(=O)Nc3ccc(OCCO)nc3)O5)cc(C)cc2n1` [Example 165, (R)-(5-fluoro-2-(2-methoxy-7-methylquinoxalin-5-yl)-7,8-dihydrobenzofuro[5,4-d]thiazo 1-7-yl)methyl (6-(2-hydroxyethoxy)pyridin-3-yl)carbamate] was tested. Which IC50 did it give?
The IC50 was 1 nM.

For `COc1cnc2c(-c3nc4cc(F)c5c(c4s3)C[C@H](COC(=O)Nc3ccc(OCC(F)(F)CO)nc3)O5)cc(C)cc2n1` [Example 166, (R)-(5-fluoro-2-(2-methoxy-7-methylquinoxalin-5-yl)-7,8-dihydrobenzofuro[5,4-d]thiazo 1-7-yl)methyl (6-(2,2-difluoro-3-hydroxypropoxy)pyridin-3-yl)carbamate], which IC50 is on record?
The IC50 was 1.1 nM.

How did the IC50 turn out when `COc1cnc2c(-c3nc4cc(F)c5c(c4s3)CC(C)(CO)O5)cc(C)cc2n1` (stereo not drawn) [Example 167, (5-fluoro-2-(2-methoxy-7-methylquinoxalin-5-yl)-7-methyl-7,8-dihydrobenzofuro[5,4-d]thiazol-7-yl)methanol] was run?
Its IC50 is 3.1 nM.

Which IC50 does the source give for `COc1cncc(NC(=O)OC[C@H]2Cc3c(c(F)cc4nc(-c5cc(C)cc6nc(OC)cnc56)sc34)O2)c1` [Example 168, (R)-(5-fluoro-2-(2-methoxy-7-methylquinoxalin-5-yl)-7,8-dihydrobenzofuro[5,4-d]thiazo 1-7-yl)methyl (5-methoxypyridin-3-yl)carbamate] here?
Its IC50 is 5 nM.

For `COc1cnc2c(-c3nc4cc(F)c5c(c4s3)C[C@H](COC(=O)Nc3ccc(C(=O)N4CCOCC4)cc3)O5)cc(C)cc2n1` [Example 169, (R)-(5-fluoro-2-(2-methoxy-7-methylquinoxalin-5-yl)-7,8-dihydrobenzofuro[5,4-d]thiazol-7-yl)methyl (4-(morpholine-4-carbonyl)phenyl)carbamate], which IC50 is on record?
Its IC50 is 6.6 nM.

How did the IC50 turn out when `COc1cnc2c(-c3nc4cc(F)c5c(c4s3)C[C@H](COC(=O)Nc3ccc(F)nc3)O5)cc(C)cc2n1` [Example 170, (R)-(5-fluoro-2-(2-methoxy-7-methylquinoxalin-5-yl)-7,8-dihydrobenzofuro[5,4-d]thiazo 1-7-yl)methyl (6-fluoropyridin-3-yl)carbamate] was run?
Its IC50 is 5.7 nM.

For `COc1cnc2c(-c3nc4ccc5c(c4s3)CC(C)(CO)O5)cc(C)cc2n1` (stereo not drawn) [Example 171, (2-(2-methoxy-7-methylquinoxalin-5-yl)-7-methyl-7,8-dihydrobenzofuro[5,4-d]thiazol-7-yl)methanol], which IC50 is on record?
The IC50 was 45 nM.

`COc1cnc2c(-c3nc4cc(F)c5c(c4s3)C[C@@](C)(CO)O5)cc(C)cc2n1` [Example 172, (S)-(5-fluoro-2-(2-methoxy-7-methylquinoxalin-5-yl)-7-methyl-7,8-dihydrobenzofuro[5,4-d]thiazol-7-yl)methanol] was tested. Which IC50 did it give?
Its IC50 is 1.1 nM.

For `COc1cnc2c(-c3nc4cc(F)c5c(c4s3)C[C@H](COC(=O)Nc3cnc(OCCO)nc3)O5)cc(C)cc2n1` [Example 173, (R)-(5-fluoro-2-(2-methoxy-7-methylquinoxalin-5-yl)-7,8-dihydrobenzofuro[5,4-d]thiazo 1-7-yl)methyl (2-(2-hydroxyethoxy)pyrimidin-5-yl)carbamate], which IC50 is on record?
Its IC50 is 1.3 nM.
